Experimental data from patent US8354539B2, “Indole derivatives as IKK2 inhibitors” (Glaxo Group Limited, priority 2009, dated 2013).

Test system: polychromatic erythrocytes from rat bone marrow
Assay: Bone marrow micronucleus assay in rats
Conditions: 20 mg/kg/day oral, once only, male rats, positive control
Description: The objective of this study was to assess the potential of 5-[2-(1-methylethyl)-2,3-dihydro-1H-isoindol-5-yl]-3-(1-{[2-(methyloxy)ethyl]sulfonyl}-4-piperidinyl)-1H-indole-7-carboxamide in induce structural chromosomal damage and/or aneuploidy in vivo, in polychromatic erythrocytes from rat bone marrow, when administered to rats for two consecutive days.
Crl: CD(SD) rats were used in this study.
Doses of 500, 1000, 2000 mg/kg/day of 5-[2-(1-methylethyl)-2,3-dihydro-1H-isoindol-5-yl]-3-(1-{[2-(methyloxy)ethyl]sulfonyl}-4-piperidinyl)-1H-indole-7-carboxamide, or vehicle (0.5% (w/v) aqueous hydroxypropylmethylcellulose containing 0.1% (w/v) Tween 80), were given orally (by gavage) to groups of 3 male and 3 female rats. […]
Doses of 1000 or 2000 mg/kg/day—5-[2-(1-methylethyl)-2,3-dihydro-1H-isoindol-5-yl]-3-(1-{[2-(methyloxy)ethyl]sulfonyl}-4-piperidinyl)-1H-indole-7-carboxamide or vehicle (0.5% (w/v) aqueous hydroxypropylmethylcellulose containing 0.1% (w/v) Tween 80) were given orally, by gavage, on two consecutive days to groups of 6 male rats. […] Smears were stained with acridine orange prior to analysis with fluorescense microscopy to determine the proportion of polychromatic erythrocytes in the total erythrocyte count (% PCE) and the number of micronucleated polychromatic erythrocytes (MPCE) per 2000 PCE analysed.

O=P1(N(CCCl)CCCl)NCCCO1 (centres unmarked) [Cyclophosphamide, cyclophosphamide]
Group Mean % PCE: 46% | Group Mean MPCE: 51.87 per 2000 PCE analysed
